# Laboratory results reported in patent publication EP1020531A2, “Use of spore adhesion assays in fungicide screening” (priority 1999, dated 2000).
# Legend:
# Magnaporthe grisea = type: cell-based; conditions: for EC50 (ppm): inhibition of adhesion, YEG, 25°C, 6 hours; for inhibition of germination-associated adhesion: statement in words
# Botrytis cinerea spores [1] = test: Spore adhesion assay in polystyrene counting vials (Coulter Counter); type: cell-based; conditions: 25°C, 5.5 h; for EC50: Botrytis cinerea, read-out: Inhn. of Spore Adhesion (EC50, ppm) Counting vials
# Experimental: (§1) Botrytis cinerea was grown at room temperature under fluorescent lights on potato dextrose agar (PDA), and subcultured every 14 days. To prepare spore suspensions, 20 ml sterile milliQ™ water was added to plates (10-14 days old) and the surface scraped gently with a sterile loop. The fluid was filtered through glass wool to remove mycelial fragments, then the spore density was adjusted to the desired concentration.
# Various fungicides were evaluated for their abilities to inhibit germination-associated spore adhesion to polystyrene counting vials, polymethylpentene (Permanox®) chamber slides and 96-well flat-bottomed polystyrene microtiter plates, and for their effects on spore germination and mycelial growth (table below). Adhesion assays in chamber slides and germination assays were performed as in Example 1 with incubation at 25°C for 5.5 h. Adhesion assays in counting vials were conducted in 20 ml capacity polystyrene counting vials (VWR cat. no. 14310-640). Counting vials received 5 µl of DMSO (controls) or test compound dissolved in DMSO, followed by 500 µl of SDB. Aqueous spore suspension (500 µl) at 200,000 spores/ml was added, mixed gently and the vials or slides incubated at 25°C for 5.5 h. To determine the numbers of unbound spores 15 ml of counting fluid was added, vials were capped and inverted gently 5 times, then counted using a Coulter Counter®.
# Botrytis = test: Mycelial growth inhibition, poison agar assay; conditions: for EC50: Botrytis, 72 h, read-out: Mycelial Growth Inhn. EC50 (ppm)
# Experimental: Inhibition of mycelial growth was evaluated in poison agar assays. A 4-fold dilution series of each fungicide to be tested was prepared in DMSO and 125 µl of each dilution was added to 25 ml of molten malt extract agar (20 g malt extract, 20 g glucose, 1 g peptone and 20 g agar per liter). The medium containing test compound was poured immediately into 9 cm diameter petri dishes. Two replicate plates were used for each treatment. Each plate was inoculated with a 7 mm diameter plug taken from the growing edge of a Botrytis culture on PDA. Colony diameters were measured after growth for 3 days in the dark at 25°C. EC50 values were determined from dose-response curves.
# [2] = system: Colletotrichum lagenarium spores; test: Spore adhesion assay in 96-well polystyrene microtiter plates; type: cell-based; conditions: for Inhn. of Adhesion (EC50, ppm) Microtiter plates: SDB with Tween 20 (40 ppm), 8 h
# Experimental: (§2) For adhesion assays in microtiter plates, stock solutions of test compounds were prepared in DMSO then diluted in SDB such that the DMSO concentration after dilution was ≤2%. Two-fold serial dilutions of these test compound solutions were made in SDB (100 µl) in 96-well flat-bottomed microtiter plates. Spore suspension (100 µl at 2X10^5 spores/ml) was added to the wells, and the plates were incubated at 25°C for 5.5 hours. The medium containing unbound spores was removed by inverting and flicking the microtiter plate to remove as much liquid as possible.
# Colletotrichum lagenarium was grown at 25°C in the dark on potato dextrose agar and subcultured every 7-14 days. To prepare spore suspensions, 15 ml sterile water was added to plates (7-10 days old) and the plates agitated gently on a gyrotary shaker for 10 min to release spores. The resulting spore suspension was filtered through glass wool and adjusted to the desired concentration. Spore adhesion assays and germination assays were conducted as outlined in Example 1 for Botrytis except that the SDB medium contained Tween™ 20 (40 ppm), and the spore inoculum was prepared at 5X10^5 spores/ml. Data in the table below show a time-dependent adhesion of spores to the slide which closely parallels the time-course for spore germination.
# Various fungicides were evaluated for their abilities to inhibit spore adhesion in 96-well flat-bottomed polystyrene microtiter plates and Permanox® chamber slides, and for their effects on spore germination and mycelial growth. Assays were conducted as outlined in Example 2 for Botrytis except that the SDB medium contained Tween™ 20 (40 ppm), the spore inoculum was prepared at 5X10^5 spores/ml, and 8 h incubation was used for the adhesion and germination assays. For each compound tested, EC50 values for inhibition of adhesion to microtiter plates and chamber slides were similar. Spore adhesion was sensitive to all compounds which inhibited germination at low concentrations (<0.2 ppm).
# [3] = system: Colletotrichum lagenarium spores; type: cell-based; conditions: SDB with Tween 20 (40 ppm), 8 h
# [4] = system: Colletotrichum lagenarium; test: Mycelial growth inhibition, poison agar assay; type: cell-based
# [5] = system: Colletotrichum lagenarium spores; test: Spore germination assay; type: cell-based; conditions: for Germination EC50 (ppm): 8 h
# Botrytis cinerea spores [6] = test: Spore germination assay (microscopic examination); type: cell-based; conditions: 25°C, 5.5 h; for EC50: Botrytis cinerea, read-out: Inhn. of Germination EC50 (ppm)
# Botrytis cinerea spores [7] = test: microbe, parasite or virus in culture; type: cell-based; conditions: 5.5 h; for EC50: Botrytis cinerea, read-out: Inhn. of Spore Adhesion (EC50, ppm) Chamber Slides
# Botrytis cinerea spores [8] = test: Spore adhesion assay in 96-well polystyrene microtiter plates (sulforhodamine B); type: cell-based; conditions: 25°C, 5.5 hours; for EC50: Botrytis cinerea, read-out: Inhn. of Spore Adhesion (EC50, ppm) Microtiter plates
# Experimental: as §1, §2
# [9] = system: Aspergillus nidulans spores; test: Spore adhesion assay in 96-well polystyrene microtiter plates; type: cell-based; conditions: statement in words
# Experimental: as §2
# Various fungicides were evaluated for their abilities to inhibit spore adhesion in 96-well flat-bottomed polystyrene microtiter plates. Adhesion assays were conducted as outlined in Example 2 for Botrytis except that the spore inoculum was prepared at 2X10^6 spores/ml, and plates were incubated at 37°C for 8 h.
# Puccinia recondita = test: Germination-associated spore adhesion assay in microtiter plates (sulforhodamine B); type: cell-based; conditions: for EC50 (ppm): inhibition of adhesion, 0.05% Tween 20, 19°C, 4 hours; for inhibition of germination-associated adhesion: statement in words
# Botrytis cinerea spores [10] = test: Spore adhesion to polyethylene vials; type: cell-based
# Botrytis cinerea spores [11] = test: Spore adhesion to borosilicate glass vials; type: cell-based
# Botrytis cinerea spores [12] = test: Spore adhesion to Plexiglas chamber slides; type: cell-based
# Experimental: Assays were conducted in custom-made chamber slides made of Plexiglas®. Chamber slide wells received 5 µl of DMSO (controls) or kresoxim-methyl dissolved in DMSO, followed by 500 µl of SDB. Aqueous spore suspension (500 µl) at 200,000 spores/ml was added, mixed gently and the vials or slides incubated at 25°C for the desired period. The number of nonadhered spores was determined by transferring the fluid to a counting vial, washing the chamber slide well once by adding 1 ml of counting fluid to the well, shaking gently, and then adding the wash to the counting vial. Counting fluid (14 ml) was added to the vial, and the spores counted using a Coulter Counter®. The number of adhered spores was determined by subtracting the number of nonadhered spores from the total number of spores and was expressed as a percentage (% Adhesion).
# Botrytis cinerea spores [13] = test: Spore adhesion to polypropylene vials; type: cell-based; conditions: 7 hours
SMILES,EC50 (ppm) (Magnaporthe grisea),inhibition of germination-associated adhesion (Magnaporthe grisea),"Inhn. of Adhesion (EC50, ppm) Microtiter plates [2]","Inhn. of Adhesion (EC50, ppm) Chamber slides [3]",Mycelial Growth Inhn. EC50 (ppm) [4],EC50 (Botrytis),Germination EC50 (ppm) ([5]; SDB with Tween 20 (40 ppm)),EC50 (Botrytis cinerea spores [6]),EC50 (Botrytis cinerea spores [8]),EC50 (Botrytis cinerea spores [1]),EC50 (Botrytis cinerea spores [7]),inhibition of spore adhesion [9],EC50 (ppm) (Puccinia recondita),inhibition of germination-associated adhesion (Puccinia recondita),other results
CO/C=C(/C(=O)OC)c1ccccc1Oc1cc(Oc2ccccc2C#N)ncn1 [Azoxystrobin],0.064 ppm,potent inhibitors of germination-associated adhesion,0.027 ppm,0.014 ppm,>10 ppm,,,,,,,,,,"Inhn. of Spore Adhesion (EC50, ppm) Counting vials (Botrytis cinerea spores [1]): 0.19 ppm; Mycelial Growth Inhn. EC50 (ppm) (Botrytis; malt extract agar, 3 days, 25°C): 3.05 ppm; Germination EC50 (ppm) ([5]; 40 ppm): 0.010 ppm; Inhn. of Germination EC50 (ppm) (Botrytis cinerea spores [6]): 0.32 ppm; Inhn. of Spore Adhesion (EC50, ppm) Chamber Slides (Botrytis cinerea spores [7]; Permanox chamber slides, 25°C): 0.28 ppm; Inhn. of Spore Adhesion (EC50, ppm) Microtiter plates (Botrytis cinerea spores [8]): 0.19 ppm"
COC(=O)Nc1nc2ccccc2[nH]1 [Carbendazim],,,1.96 ppm,>10 ppm,0.060 ppm,0.045 µg/mL,>10 ppm,> 25 µg/mL,> 10 µg/mL,,,,,,activity in the spore adhesion assay ([2]; statement in words on adhesion to microtiter plates and chamber slides): little or no activity; inhibition of germination ([5]; statement in words): did not inhibit germination
N#Cc1c(Cl)c(Cl)c(Cl)c(C#N)c1Cl [Chlorothalonil],0.038 ppm,potent inhibitors of germination-associated adhesion,0.068 ppm,0.104 ppm,7.10 ppm,0.35 µg/mL,0.005 ppm,0.067 µg/mL,0.1 µg/mL,0.093 µg/mL,0.089 µg/mL,highly potent inhibitors of spore adhesion,0.473 ppm,inhibited germination-associated adhesion,
N#Cc1c[nH]cc1-c1cccc(Cl)c1Cl [Fenpiclonil],,,,,,0.0015 µg/mL,,< 0.0312 µg/mL,0.09 µg/mL,0.096 µg/mL,1.89 µg/mL,,,,
O=[N+]([O-])c1cc(C(F)(F)F)c(Cl)c([N+](=O)[O-])c1Nc1ncc(C(F)(F)F)cc1Cl [Fluazinam],,,<0.019 ppm,0.007 ppm,0.017 ppm,0.033 µg/mL,0.004 ppm,0.028 µg/mL,0.051 µg/mL,0.041 µg/mL,0.071 µg/mL,highly potent inhibitors of spore adhesion,0.365 ppm,inhibited germination-associated adhesion,
O=C1c2ccccc2C(=O)N1SC(Cl)(Cl)Cl [Folpet],,,,,,5.5 µg/mL,,0.15 µg/mL,0.33 µg/mL,0.21 µg/mL,0.22 µg/mL,,,,
CO/N=C(/C(=O)OC)c1ccccc1COc1ccccc1C [Kresoxim-methyl],0.067 ppm,potent inhibitors of germination-associated adhesion,0.026 ppm,0.054 ppm,>10 ppm,0.28 µg/mL,0.015 ppm,0.02 µg/mL,0.011 µg/mL,0.014 µg/mL,0.035 µg/mL,highly potent inhibitors of spore adhesion,0.016 ppm,inhibited germination-associated adhesion,"%Adhesion with kresoxim-methyl, 10 ppm (Botrytis cinerea spores [10]; 6 hours): 12.7%; %Adhesion with kresoxim-methyl, 10 ppm (Botrytis cinerea spores [10]; 7 hours): 15.1%; %Adhesion with kresoxim-methyl, 10 ppm (Botrytis cinerea spores [11]; 6 hours): 23.4%; %Adhesion with kresoxim-methyl, 10 ppm (Botrytis cinerea spores [11]; 7 hours): 29.6%; %Adhesion with kresoxim-methyl, 10 ppm (Botrytis cinerea spores [12]; 7 hours): 17.4%; %Adhesion with kresoxim-methyl, 10 ppm (Botrytis cinerea spores [12]; 8 hours): 26.2%; %Adhesion with kresoxim-methyl, 10 ppm (Botrytis cinerea spores [13]): 18.9%"
Cc1cc(C)nc(Nc2ccccc2)n1 [Pyrimethanil],,,,,,0.48 µg/mL,,8.6 µg/mL,> 10 µg/mL,> 25 µg/mL,> 25 µg/mL,,,,
CN(C)C(=S)SSC(=S)N(C)C [Thiram],,,,,,0.78 µg/mL,,< 0.625 µg/mL,1.86 µg/mL,1.04 µg/mL,1.87 µg/mL,,,,
C=CC1(C)OC(=O)N(c2cc(Cl)cc(Cl)c2)C1=O (centres unmarked) [Vinclozolin],,,,,,0.11 µg/mL,,< 0.5 µg/mL,0.62 µg/mL,0.56 µg/mL,> 5 µg/mL,,,,
